From ChEMBL document CHEMBL4507324 (2021)

Columns and labels:
Details in all cases: Compound concentration 100.0 nM
[1] = biological target: Homeodomain-interacting protein kinase 4 (Homo sapiens) (UniProt Q8NE63)
[2] = biological target: Serine/threonine-protein kinase PLK4 (Homo sapiens) (UniProt O00444)
[3] = biological target: Serine/threonine-protein kinase Nek9 (Homo sapiens) (UniProt Q8TD19)
[4] = biological target: Tyrosine-protein kinase ABL2 (Homo sapiens) (UniProt P42684)
[5] = biological target: Cyclin-dependent kinase 17 (Homo sapiens) (UniProt Q00537)
[6] = biological target: Receptor-type tyrosine-protein kinase FLT3 (Homo sapiens) (UniProt P36888)
[7] = biological target: Phosphatidylinositol 4-phosphate 5-kinase type-1 alpha (Homo sapiens) (UniProt Q99755)
Phosphatidylinositol 4-phosphate 5-kinase type-1 alpha (Homo sapiens), sequence (Q99755 whole entry): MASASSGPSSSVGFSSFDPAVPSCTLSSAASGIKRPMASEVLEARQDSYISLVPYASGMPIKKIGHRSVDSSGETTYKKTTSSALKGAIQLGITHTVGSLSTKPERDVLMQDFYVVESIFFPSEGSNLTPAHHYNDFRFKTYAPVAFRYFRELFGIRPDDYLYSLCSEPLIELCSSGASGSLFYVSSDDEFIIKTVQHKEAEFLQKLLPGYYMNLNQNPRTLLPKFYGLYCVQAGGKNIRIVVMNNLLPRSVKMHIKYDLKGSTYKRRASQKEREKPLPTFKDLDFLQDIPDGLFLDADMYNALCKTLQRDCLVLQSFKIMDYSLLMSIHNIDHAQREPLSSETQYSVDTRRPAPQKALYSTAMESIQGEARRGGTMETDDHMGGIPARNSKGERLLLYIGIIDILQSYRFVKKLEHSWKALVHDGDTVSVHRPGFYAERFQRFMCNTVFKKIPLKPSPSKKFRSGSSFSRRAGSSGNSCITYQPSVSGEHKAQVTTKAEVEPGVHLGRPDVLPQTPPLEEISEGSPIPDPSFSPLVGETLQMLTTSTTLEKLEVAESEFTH

[8] = biological target: Serine/threonine-protein kinase WNK2 (Homo sapiens) (UniProt Q9Y3S1)
[9] = biological target: Aurora kinase A (Homo sapiens) (UniProt O14965)
[10] = test system: Mast/stem cell growth factor receptor Kit (Homo sapiens), P10721 [V559D]
[11] = biological target: Tyrosine-protein kinase receptor TYRO3 (Homo sapiens) (UniProt Q06418)
[12] = biological target: MAP/microtubule affinity-regulating kinase 4 (Homo sapiens) (UniProt Q96L34)
[13] = biological target: Dual specificity tyrosine-phosphorylation-regulated kinase 1A (Homo sapiens) (UniProt Q13627)
[14] = biological target: Serine/threonine-protein kinase N1 (Homo sapiens) (UniProt Q16512)
[15] = biological target: Myosin light chain kinase 2, skeletal/cardiac muscle (Homo sapiens) (UniProt Q9H1R3)
[16] = test system: Epidermal growth factor receptor (Homo sapiens), P00533 [UNDEFINED MUTATION]
[17] = biological target: Ribosomal protein S6 kinase alpha-5 (Homo sapiens) (UniProt O75582)
[18] = biological target: Serine/threonine-protein kinase 36 (Homo sapiens) (UniProt Q9NRP7)
[19] = biological target: Fibroblast growth factor receptor 3 (Homo sapiens) (UniProt P22607)
Fibroblast growth factor receptor 3 (Homo sapiens), sequence (P22607 23-806 limits assumed): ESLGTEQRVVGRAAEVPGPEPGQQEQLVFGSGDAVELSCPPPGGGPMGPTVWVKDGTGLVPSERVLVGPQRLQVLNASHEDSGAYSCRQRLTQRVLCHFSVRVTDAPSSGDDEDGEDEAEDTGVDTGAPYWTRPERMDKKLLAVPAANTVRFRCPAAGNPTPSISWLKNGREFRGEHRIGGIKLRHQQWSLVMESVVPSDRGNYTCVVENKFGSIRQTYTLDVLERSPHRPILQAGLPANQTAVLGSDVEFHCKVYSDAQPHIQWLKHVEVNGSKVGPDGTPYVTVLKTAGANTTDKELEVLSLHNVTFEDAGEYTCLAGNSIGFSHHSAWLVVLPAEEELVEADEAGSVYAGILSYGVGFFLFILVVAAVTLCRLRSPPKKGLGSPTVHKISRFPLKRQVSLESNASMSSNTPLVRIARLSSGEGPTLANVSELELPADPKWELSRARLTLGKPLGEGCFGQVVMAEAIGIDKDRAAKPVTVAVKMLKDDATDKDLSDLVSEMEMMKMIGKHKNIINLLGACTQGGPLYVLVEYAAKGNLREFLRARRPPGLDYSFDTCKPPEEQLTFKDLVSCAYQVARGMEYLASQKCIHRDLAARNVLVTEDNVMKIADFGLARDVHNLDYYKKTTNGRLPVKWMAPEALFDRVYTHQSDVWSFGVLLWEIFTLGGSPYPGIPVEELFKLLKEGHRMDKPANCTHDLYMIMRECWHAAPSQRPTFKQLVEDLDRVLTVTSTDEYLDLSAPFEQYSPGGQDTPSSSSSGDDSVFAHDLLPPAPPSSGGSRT

[20] = biological target: Insulin receptor (Homo sapiens) (UniProt P06213)
Insulin receptor (Homo sapiens), sequence (P06213 28-758 limits assumed): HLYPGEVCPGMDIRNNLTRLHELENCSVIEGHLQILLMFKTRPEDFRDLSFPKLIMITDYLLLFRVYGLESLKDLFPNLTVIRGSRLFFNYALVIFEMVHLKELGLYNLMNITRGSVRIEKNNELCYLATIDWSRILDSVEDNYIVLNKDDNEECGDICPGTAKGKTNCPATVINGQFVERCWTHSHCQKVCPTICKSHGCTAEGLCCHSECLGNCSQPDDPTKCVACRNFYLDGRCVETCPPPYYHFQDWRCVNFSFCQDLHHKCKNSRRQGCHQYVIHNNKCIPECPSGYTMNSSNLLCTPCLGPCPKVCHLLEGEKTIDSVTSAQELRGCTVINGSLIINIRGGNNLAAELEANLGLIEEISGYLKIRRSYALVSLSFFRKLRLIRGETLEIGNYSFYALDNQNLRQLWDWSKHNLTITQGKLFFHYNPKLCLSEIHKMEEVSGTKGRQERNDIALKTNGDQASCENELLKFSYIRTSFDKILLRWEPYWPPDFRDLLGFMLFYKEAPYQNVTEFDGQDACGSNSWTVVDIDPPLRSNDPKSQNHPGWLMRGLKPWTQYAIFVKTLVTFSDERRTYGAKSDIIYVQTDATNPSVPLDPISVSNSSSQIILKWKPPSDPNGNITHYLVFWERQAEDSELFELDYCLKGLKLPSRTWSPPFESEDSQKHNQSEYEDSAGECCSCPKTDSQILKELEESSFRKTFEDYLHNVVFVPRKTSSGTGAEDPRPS
Insulin receptor (Homo sapiens), sequence (P06213 763-1382 limits assumed): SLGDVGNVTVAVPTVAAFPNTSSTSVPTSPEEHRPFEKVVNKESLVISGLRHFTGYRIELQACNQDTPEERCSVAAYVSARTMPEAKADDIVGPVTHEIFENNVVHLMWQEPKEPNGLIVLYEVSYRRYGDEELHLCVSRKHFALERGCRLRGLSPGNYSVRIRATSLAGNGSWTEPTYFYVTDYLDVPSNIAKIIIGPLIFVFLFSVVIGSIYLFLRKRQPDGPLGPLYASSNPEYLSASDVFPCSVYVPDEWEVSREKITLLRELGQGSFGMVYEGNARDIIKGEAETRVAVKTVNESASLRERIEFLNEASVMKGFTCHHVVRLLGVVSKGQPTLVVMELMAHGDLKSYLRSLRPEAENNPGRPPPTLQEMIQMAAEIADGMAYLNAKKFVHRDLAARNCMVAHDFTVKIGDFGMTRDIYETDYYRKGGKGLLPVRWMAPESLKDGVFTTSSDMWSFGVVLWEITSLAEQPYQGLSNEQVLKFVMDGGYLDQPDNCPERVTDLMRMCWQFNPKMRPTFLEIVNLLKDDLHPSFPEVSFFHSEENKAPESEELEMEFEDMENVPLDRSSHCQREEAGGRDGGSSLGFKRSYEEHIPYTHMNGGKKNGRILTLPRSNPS

[21] = biological target: Serine/threonine-protein kinase MRCK beta (Homo sapiens) (UniProt Q9Y5S2)
[22] = biological target: Serine/threonine-protein kinase TAO2 (Homo sapiens) (UniProt Q9UL54)
[23] = biological target: RAC-alpha serine/threonine-protein kinase (Homo sapiens) (UniProt P31749)
[24] = biological target: Ribosomal protein S6 kinase beta-1 (Homo sapiens) (UniProt P23443)
Ribosomal protein S6 kinase beta-1 (Homo sapiens), sequence (P23443 whole entry, looked up): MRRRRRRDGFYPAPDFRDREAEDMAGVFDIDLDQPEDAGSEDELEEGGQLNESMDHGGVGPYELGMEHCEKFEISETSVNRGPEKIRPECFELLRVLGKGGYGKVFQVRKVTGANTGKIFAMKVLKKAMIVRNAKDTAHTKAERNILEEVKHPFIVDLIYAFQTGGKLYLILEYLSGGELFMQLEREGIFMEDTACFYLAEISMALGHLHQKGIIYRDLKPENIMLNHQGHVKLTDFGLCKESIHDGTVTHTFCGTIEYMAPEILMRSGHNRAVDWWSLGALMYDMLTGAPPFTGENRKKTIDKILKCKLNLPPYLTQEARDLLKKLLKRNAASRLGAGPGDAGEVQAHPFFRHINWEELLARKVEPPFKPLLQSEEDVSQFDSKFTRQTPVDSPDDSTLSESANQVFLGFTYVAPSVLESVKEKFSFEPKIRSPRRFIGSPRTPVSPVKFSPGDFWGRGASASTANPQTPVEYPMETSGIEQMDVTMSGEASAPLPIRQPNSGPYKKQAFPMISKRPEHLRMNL

[25] = biological target: Dual specificity testis-specific protein kinase 1 (Homo sapiens) (UniProt Q15569)
Dual specificity testis-specific protein kinase 1 (Homo sapiens), sequence (Q15569 whole entry, looked up): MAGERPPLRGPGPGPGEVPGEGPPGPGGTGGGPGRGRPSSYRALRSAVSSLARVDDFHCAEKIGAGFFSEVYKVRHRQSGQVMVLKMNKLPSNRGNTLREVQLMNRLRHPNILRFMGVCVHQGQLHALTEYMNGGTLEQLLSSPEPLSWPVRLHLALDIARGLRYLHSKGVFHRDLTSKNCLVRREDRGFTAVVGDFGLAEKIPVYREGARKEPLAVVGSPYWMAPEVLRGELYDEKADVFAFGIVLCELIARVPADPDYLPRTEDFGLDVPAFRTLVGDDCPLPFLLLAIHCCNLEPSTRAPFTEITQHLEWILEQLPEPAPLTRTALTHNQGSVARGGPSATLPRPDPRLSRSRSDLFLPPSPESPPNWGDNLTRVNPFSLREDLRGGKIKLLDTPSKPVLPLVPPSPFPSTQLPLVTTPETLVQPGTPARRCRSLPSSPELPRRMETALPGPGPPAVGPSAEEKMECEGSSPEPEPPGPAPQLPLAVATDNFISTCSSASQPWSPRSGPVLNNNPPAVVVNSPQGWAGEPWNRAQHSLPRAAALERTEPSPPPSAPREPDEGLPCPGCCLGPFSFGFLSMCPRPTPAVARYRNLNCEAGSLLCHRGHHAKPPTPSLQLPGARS

[26] = biological target: Ribosomal protein S6 kinase alpha-3 (Homo sapiens) (UniProt P51812)
[27] = biological target: Cyclin-dependent kinase 18 (Homo sapiens) (UniProt Q07002)
[28] = biological target: MAP kinase-interacting serine/threonine-protein kinase 1 (Homo sapiens) (UniProt Q9BUB5)
[29] = biological target: Rhodopsin kinase GRK1 (Homo sapiens) (UniProt Q15835)
[30] = biological target: Serine/threonine-protein kinase TBK1 (Homo sapiens) (UniProt Q9UHD2)
[31] = biological target: Serine/threonine-protein kinase Nek11 (Homo sapiens) (UniProt Q8NG66)
[32] = test system: Mast/stem cell growth factor receptor Kit (Homo sapiens), P10721 [D816V]
[33] = biological target: Mitogen-activated protein kinase kinase kinase 2 (Homo sapiens) (UniProt Q9Y2U5)
[34] = biological target: Serine/threonine-protein kinase Nek6 (Homo sapiens) (UniProt Q9HC98)
[35] = biological target: Serine/threonine-protein kinase SIK1 (Homo sapiens) (UniProt P57059)
[36] = test system: Epidermal growth factor receptor (Homo sapiens), P00533 [L858R]
[37] = biological target: Tyrosine-protein kinase Blk (Homo sapiens) (UniProt P51451)
[38] = biological target: Maternal embryonic leucine zipper kinase (Homo sapiens) (UniProt Q14680)
[39] = biological target: Calcium/calmodulin-dependent protein kinase type II subunit gamma (Homo sapiens) (UniProt Q13555)
[40] = biological target: NUAK family SNF1-like kinase 1 (Homo sapiens) (UniProt O60285)
NUAK family SNF1-like kinase 1 (Homo sapiens), sequence (O60285 whole entry): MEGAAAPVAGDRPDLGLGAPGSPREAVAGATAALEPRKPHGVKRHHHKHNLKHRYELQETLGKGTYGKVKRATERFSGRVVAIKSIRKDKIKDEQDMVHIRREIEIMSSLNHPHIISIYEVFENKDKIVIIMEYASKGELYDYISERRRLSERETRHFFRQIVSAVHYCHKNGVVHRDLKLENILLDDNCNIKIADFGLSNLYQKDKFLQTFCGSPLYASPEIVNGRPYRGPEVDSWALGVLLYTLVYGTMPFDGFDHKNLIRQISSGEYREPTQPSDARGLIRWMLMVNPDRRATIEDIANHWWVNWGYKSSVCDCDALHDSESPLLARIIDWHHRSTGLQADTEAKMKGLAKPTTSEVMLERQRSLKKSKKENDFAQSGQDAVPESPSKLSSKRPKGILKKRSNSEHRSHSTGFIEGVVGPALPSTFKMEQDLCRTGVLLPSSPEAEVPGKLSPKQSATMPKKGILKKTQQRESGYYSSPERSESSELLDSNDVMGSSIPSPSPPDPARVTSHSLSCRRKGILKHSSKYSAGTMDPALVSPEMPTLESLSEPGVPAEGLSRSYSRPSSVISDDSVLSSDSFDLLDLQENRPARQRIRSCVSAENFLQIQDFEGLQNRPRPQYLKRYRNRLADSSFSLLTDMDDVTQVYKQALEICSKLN

[41] = biological target: Cyclin-dependent kinase-like 3 (Homo sapiens) (UniProt Q8IVW4)
[42] = biological target: SNF-related serine/threonine-protein kinase (Homo sapiens) (UniProt Q9NRH2)
[43] = test system: Phosphatidylinositol 4,5-bisphosphate 3-kinase catalytic subunit alpha isoform (Homo sapiens), P42336 [E542K]
[44] = biological target: Serine/threonine-protein kinase Chk1 (Homo sapiens) (UniProt O14757)
[45] = biological target: Dual specificity protein kinase CLK2 (Homo sapiens) (UniProt P49760)
Dual specificity protein kinase CLK2 (Homo sapiens), sequence (P49760 whole entry, looked up): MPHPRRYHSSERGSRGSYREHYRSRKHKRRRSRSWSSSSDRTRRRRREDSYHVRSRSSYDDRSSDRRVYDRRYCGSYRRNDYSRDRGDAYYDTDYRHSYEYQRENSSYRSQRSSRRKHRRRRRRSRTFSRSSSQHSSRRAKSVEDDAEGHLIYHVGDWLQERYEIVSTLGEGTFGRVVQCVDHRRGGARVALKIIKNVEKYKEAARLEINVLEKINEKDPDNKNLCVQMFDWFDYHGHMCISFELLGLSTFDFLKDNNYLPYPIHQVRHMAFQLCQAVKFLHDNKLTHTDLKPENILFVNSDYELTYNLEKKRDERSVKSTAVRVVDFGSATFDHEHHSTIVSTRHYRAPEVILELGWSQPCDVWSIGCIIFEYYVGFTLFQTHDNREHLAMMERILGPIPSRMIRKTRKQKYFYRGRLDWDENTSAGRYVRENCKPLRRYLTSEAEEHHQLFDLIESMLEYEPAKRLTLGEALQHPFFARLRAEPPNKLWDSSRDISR

## CS(=O)(=O)N1CCCC(NC(=O)[C@H](CCC2CCCCC2)NC(=O)c2ccc(CNc3ncnc4c3nnn4-c3ccccc3)cc2)C1 (stereo not given in full) [SR-301]
[1]
  residual activity: 100%
[2]
  residual activity: 82%
[3]
  residual activity: 100%
[4]
  residual activity: 100%
[5]
  residual activity: 86%
[6]
  residual activity: 97%
[7]
  residual activity: 100%
[8]
  residual activity: 100%
[9]
  residual activity: 100%
[10]
  residual activity: 93%
[11]
  residual activity: 90%
[12]
  residual activity: 71%
[13]
  residual activity: 87%
[14]
  residual activity: 98%
[15]
  residual activity: 90%
[16]
  residual activity: 94%
[17]
  residual activity: 81%
[18]
  residual activity: 97%
[19]
  residual activity: 100%
[20]
  residual activity: 100%
[21]
  residual activity: 90%
[22]
  residual activity: 93%
[23]
  residual activity: 100%
[24]
  residual activity: 100%
[25]
  residual activity: 100%
[26]
  residual activity: 100%
[27]
  residual activity: 100%
[28]
  residual activity: 86%
[29]
  residual activity: 94%
[30]
  residual activity: 88%
[31]
  residual activity: 100%
[32]
  residual activity: 100%
[33]
  residual activity: 100%
[34]
  residual activity: 86%
[35]
  residual activity: 100%
[36]
  residual activity: 100%
[37]
  residual activity: 100%
[38]
  residual activity: 100%
[39]
  residual activity: 94%
[40]
  residual activity: 100%
[41]
  residual activity: 96%
[42]
  residual activity: 81%
[43]
  residual activity: 64%
[44]
  residual activity: 100%
[45]
  residual activity: 100%

## CS(=O)(=O)N1CCCC(NC(=O)[C@H](CCC2CCCCC2)NC(=O)c2ccc(CNC(=O)c3cnc4ccccn34)cc2)C1 (stereo not given in full) [SR-302]
[1]
  residual activity: 88%
[2]
  residual activity: 100%
[3]
  residual activity: 100%
[4]
  residual activity: 56%
[5]
  residual activity: 80%
[6]
  residual activity: 93%
[7]
  residual activity: 89%
[8]
  residual activity: 100%
[9]
  residual activity: 100%
[10]
  residual activity: 49%
[11]
  residual activity: 83%
[12]
  residual activity: 100%
[13]
  residual activity: 100%
[14]
  residual activity: 72%
[15]
  residual activity: 90%
[16]
  residual activity: 100%
[17]
  residual activity: 90%
[18]
  residual activity: 100%
[19]
  residual activity: 100%
[20]
  residual activity: 100%
[21]
  residual activity: 100%
[22]
  residual activity: 91%
[23]
  residual activity: 100%
[24]
  residual activity: 100%
[25]
  residual activity: 93%
[26]
  residual activity: 100%
[27]
  residual activity: 100%
[28]
  residual activity: 100%
[29]
  residual activity: 100%
[30]
  residual activity: 75%
[31]
  residual activity: 94%
[32]
  residual activity: 100%
[33]
  residual activity: 100%
[34]
  residual activity: 100%
[35]
  residual activity: 92%
[36]
  residual activity: 83%
[37]
  residual activity: 100%
[38]
  residual activity: 100%
[39]
  residual activity: 86%
[40]
  residual activity: 88%
[41]
  residual activity: 100%
[42]
  residual activity: 69%
[43]
  residual activity: 78%
[44]
  residual activity: 100%
[45]
  residual activity: 98%
